Experimental data taken from ChEMBL document CHEMBL3045861, “Synthesis and insecticidal activity of N-tert-butyl-N,N'-diacylhydrazines containing 1,2,3-thiadiazoles” (2011).
In brackets after ≈: the same amount, converted by molar mass.

How the values were obtained:
Assay type in all cases: functional
[1] = tested on: Plutella xylostella; assay: Insecticidal activity against Plutella xylostella (diamondback moth) second-instar larvae grown on compound treated fresh cabbage leaves assessed as insect mortality at 200 ug/mL measured 96 hr post compound exposure by leaf film feeding method
[2] = tested on: Culex pipiens pallens; assay: Insecticidal activity against Culex pipiens pallens (mosquito) fourth-instar larvae assessed as insect mortality at 2 ug/mL measured 96 hr post compound exposure
[3] = tested on: Culex pipiens pallens; assay: Insecticidal activity against Culex pipiens pallens (mosquito) fourth-instar larvae assessed as insect mortality at 1 ug/mL measured 96 hr post compound exposure
[4] = tested on: Culex pipiens pallens; assay: Insecticidal activity against Culex pipiens pallens (mosquito) fourth-instar larvae assessed as insect mortality at 0.5 ug/mL measured 96 hr post compound exposure
[5] = tested on: Plutella xylostella; assay: Insecticidal activity against Plutella xylostella (diamondback moth) second-instar larvae grown on compound treated fresh cabbage leaves assessed as insect mortality measured 96 hr post compound exposure by leaf film feeding method
[6] = tested on: Plutella xylostella; assay: Insecticidal activity against Plutella xylostella (diamondback moth) second-instar larvae grown on compound treated fresh cabbage leaves assessed as insect mortality at 400 ug/mL measured 96 hr post compound exposure by leaf film feeding method

| Structure (SMILES) | mortality at 200 µg/mL [1] [%] | mortality at 2 µg/mL [2] [%] | mortality at 1 µg/mL [3] [%] | mortality at 0.5 µg/mL [4] [%] | LC50 [5] [mg/L] | mortality at 400 µg/mL [6] [%] |
| --- | --- | --- | --- | --- | --- | --- |
| Cc1nnsc1C(=O)NN(C(=O)c1cccc(Cl)c1)C(C)(C)C | 0 | 30 |  |  |  |  |
| COc1ccc(C(=O)N(NC(=O)c2snnc2C)C(C)(C)C)cc1 | 25 | 10 |  |  |  |  |
| CCc1ccc(C(=O)NN(C(=O)c2cc(C)cc(C)c2)C(C)(C)C)cc1 [TEBUFENOZIDE] | 40 | 100 | 100 | 60 | 26 (≈ 73.8 µM) |  |
| Cc1nnsc1C(=O)NN(C(=O)c1ccccc1C(F)(F)F)C(C)(C)C | 15 | 10 |  |  |  |  |
| COc1ccc(C(=O)NN(C(=O)c2snnc2C)C(C)(C)C)cc1 |  | 10 |  |  |  | 28 |
| Cc1nnsc1C(=O)NN(C(=O)c1ccc(Cl)cc1)C(C)(C)C | 25 | 100 | 100 | 10 |  |  |
| Cc1nnsc1C(=O)N(NC(=O)c1ccc([N+](=O)[O-])cc1)C(C)(C)C | 33 | 30 |  |  |  |  |
| Cc1nnsc1C(=O)N(NC(=O)c1ccccc1Cl)C(C)(C)C | 24 | 20 |  |  |  |  |
| Cc1nnsc1C(=O)NN(C(=O)c1ccccc1Cl)C(C)(C)C | 79 | 10 |  |  | 28 (≈ 79.4 µM) |  |
| Cc1nnsc1C(=O)NN(C(=O)c1cccc([N+](=O)[O-])c1)C(C)(C)C |  | 30 |  |  |  | 23 |
| Cc1nnsc1C(=O)N(NC(=O)c1ccc(Cl)cc1)C(C)(C)C |  | 20 |  |  |  | 43 |
| Cc1cccc(C(=O)NN(C(=O)c2snnc2C)C(C)(C)C)c1 | 12 | 20 |  |  |  |  |
| COc1cccc(C(=O)N(NC(=O)c2snnc2C)C(C)(C)C)c1 | 37 | 20 |  |  |  |  |
| COc1cccc(C(=O)NN(C(=O)c2snnc2C)C(C)(C)C)c1 |  | 10 |  |  |  | 10 |
| Cc1nnsc1C(=O)N(NC(=O)c1ccccc1[N+](=O)[O-])C(C)(C)C | 16 | 20 |  |  |  |  |
| Cc1ccccc1C(=O)N(NC(=O)c1snnc1C)C(C)(C)C | 8 | 20 |  |  |  |  |
| Cc1ccc(C(=O)N(NC(=O)c2snnc2C)C(C)(C)C)cc1 | 15 | 10 |  |  |  |  |
| Cc1nnsc1C(=O)NN(C(=O)c1cccc(C(F)(F)F)c1)C(C)(C)C | 46 | 40 |  |  |  |  |
| Cc1nnsc1C(=O)NN(C(=O)c1ccc([N+](=O)[O-])cc1)C(C)(C)C | 5 | 10 |  |  |  |  |
| Cc1nnsc1C(=O)N(NC(=O)c1cccc([N+](=O)[O-])c1)C(C)(C)C | 34 | 10 |  |  |  |  |
| COc1ccccc1C(=O)N(NC(=O)c1snnc1C)C(C)(C)C |  | 10 |  |  |  | 30 |
| Cc1ccc(C(=O)NN(C(=O)c2snnc2C)C(C)(C)C)cc1 | 37 | 0 |  |  |  |  |
| Cc1nnsc1C(=O)NN(C(=O)c1ccccc1[N+](=O)[O-])C(C)(C)C |  | 10 |  |  |  | 45 |
| Cc1ccccc1C(=O)NN(C(=O)c1snnc1C)C(C)(C)C | 68 | 100 | 100 | 30 |  |  |
| Cc1nnsc1C(=O)N(NC(=O)c1cccc(C(F)(F)F)c1)C(C)(C)C | 32 | 100 | 100 | 0 |  |  |
| Cc1nnsc1C(=O)NN(C(=O)c1ccc(C(F)(F)F)cc1)C(C)(C)C | 5 | 30 |  |  |  |  |
| COc1ccccc1C(=O)NN(C(=O)c1snnc1C)C(C)(C)C | 29 | 10 |  |  |  |  |
| Cc1cccc(C(=O)N(NC(=O)c2snnc2C)C(C)(C)C)c1 | 0 | 20 |  |  |  |  |
| Cc1nnsc1C(=O)N(NC(=O)c1cccc(Cl)c1)C(C)(C)C | 25 | 0 |  |  |  |  |
| Cc1nnsc1C(=O)N(NC(=O)c1ccc(C(F)(F)F)cc1)C(C)(C)C | 13 | 40 |  |  |  |  |
